Like-named read-outs stand apart in the source and are kept apart here.
Tests used:
[1] = system: NF-kB reporter in Jurkat cells; experiment: NF-kB reporter assay in Jurkat cells stimulated with aCD3/aCD28/PMA; format: cell-based; settings: Homo sapiens, read-out: NF-kB Reporter Assay IC50
Description: Jurkat cells were maintained in complete RPMI 1640 media supplemented with 10% FBS. Prior to the assay, 120 nL of the serial diluted compound was added in each well of 384-well flat bottom white plate (Corning #3570) by using liquid handler Echo550. Jurkat cells were harvested by centrifugation at 120 g for 10 min and resuspended in fresh RPMI 1640 media without serum. […] (25,000 cells) were seeded in each well of 384-well plate containing compound. After 1 hr incubation at 37° C. in a 5% CO2 incubator, […] of diluted aCD3/aCD28/PMA (final concentration at […] and […], respectively) in RPMI 1640 without serum were added to each well. After incubation at 37° C. in 5% CO2 for 4 hr, […] of One-Glo reagent (Promega #E6120) was added into each well. The plate was left at room temperature for 5 min and the signal was measured on EnVision (PerkinElmer).
Compounds in which an IC50 was not measured are designated as “N/A”.

Avi-tagged FL MALT-1 = Avi-tagged FL MALT-1 (Homo sapiens (Human), UniProt Q9UDY8); experiment: MALT-1 Fluorogenic Peptide Cleavage Assay (MALT1 inhibition assay); format: biochemical; settings: Ac-LRSR-AMC peptide substrate, 30 min pre-incubation, 90 min reaction at room temperature
Description: Inhibition of MALT1 activity by the presence of small molecules was evaluated using MALT-1 Fluorogenic Peptide Cleavage Assay. The assay utilizes a quenched AMC-labelled peptide that contains the MALT-1 recognition sequence and cleavage site (LRSR). MALT-1 mediated cleavage of the peptide relieves the quenching and leads to an increase in fluorescence at excitation (342 nm) and emission (441 nm).
The following reagents were obtained commercially and used to prepare standard reagent formulations as further described below: N-2-hydroxyethylpiperazine-N-2-ethane sulfonic acid (HEPES) (1 M, pH 7.5, stored at 4° C.), sodium citrate (stored at RT), tris(2-carboxyethyl) phosphine hydrochloride (T-CEP) (500 mM, stored at −20° C.), ethylenediaminetetraacetic acid (EDTA) (500 mM, stored at RT), dimethylsulfoxide (DMSO, stored at RT), 3-[(3-cholamido-propyl)dimethylammonio]-1-propane sulphate (CHAPS) (stored at RT), dimethylsulfoxide (DMSO), DMSO (Fisher Scientific, stored at RT), Avi-tagged FL MALT-1 (Pharmaron, stored at −70° C.), Ac-LRSR-AMC Peptide (SM Biochemicals, stored at −20° C.)., and ultrapure water (MILLLI-Q©).
The standard reagent formulations used in this assay were prepared and stored as follows. A 1.1 M solution of sodium citrate (161.3 g, 500 mL) was prepared and stored at room temperature. A 10% (w/v) CHAPS solution (2.0 g, 20 mL) was prepared and stored at 4° C. A 500 mM HEPES solution having pH of 6.89 was prepared from 200 mL of a 1 M HEPES solution having a pH of 7.5 using concentrated hydrochloric acid and brought to a final volume of 400 mL with MILLI-Q© H2O. The substrate, 10 mM Ac-LRSR-AMC Peptide, was prepared (10 mg, 1.370 mL DMSO) and stored at −20° C.
Compounds were plated to provide a 2% DMSO final concentration using a ProxiPlate-384 Plus F Black 384-shallow well microplate. The assay-ready plates were equilibrated to room temperature. A reaction buffer (30 mL total volume) was prepared by combining HEPES (pH 6.89, 25 mM, 1.5 mL), sodium citrate (660 mM, 18.0 mL), T-CEP (1 mM, 0.06 mL), EDTA ([…], 0.06 mL), CHAPS (0.05%, 0.15 mL), DMSO (2%, 0.6 mL), and MILLI-Q© H2O (10.23 mL; 9.63 mL when backfilled to 2% DMSO) followed by thorough mixing. DMSO was added only when compound plates had not been DMSO-backfilled to 2%.
MALT-1 was thawed and kept on ice. Peptide substrate was thawed on the bench under ambient conditions. A MALT-1 enzyme working stock was prepared from Avi-tagged FL MALT-1 (40 nM in a prepared reagent volume of 16.5 μL) and the reaction buffer (13.0 mL). MALT1 working stock (5 μL) was added to each well of the microplate. MALT-1 was pre-incubated with compounds for 30 minutes at room temperature.
Two substrate working stocks (Km and 10×Km) were prepared. The 1×Km substrate was prepared from Ac-LRSR-AMC Peptide (50 μM in a prepared reagent volume of 35.0 μL) and the reaction buffer (6.965 mL). The 10×Km substrate was prepared from Ac-LRSR-AMC Peptide (280 μM in a prepared reagent volume of 196.0 μL) and the reaction buffer (6.804 mL). The reaction was initiated by the addition of substrate working stock (5 μL, 50 μM) to Km plates and the addition of substrate working stock (5 μL 280 μM) to 10×Km plates. The plates were covered and incubated on the bench at room temperature for 90 minutes.
Fluorescence intensity was determined using a CLARIOstar microplate reader (BMG LABTECH) using the optimised AMC mode. Before taking readings, a 70% gain was applied on the neutral control well. Compound data were normalised to % Inhibition and used to plot sigmoidal concentration response curves to yield various parameters including IC50.

[2] = Jurkat cells, 1 hr compound pre-incubation, aCD3/aCD28/PMA stimulation 4 hr, One-Glo readout

Sequence of Avi-tagged FL MALT-1 (Q9UDY8 whole entry): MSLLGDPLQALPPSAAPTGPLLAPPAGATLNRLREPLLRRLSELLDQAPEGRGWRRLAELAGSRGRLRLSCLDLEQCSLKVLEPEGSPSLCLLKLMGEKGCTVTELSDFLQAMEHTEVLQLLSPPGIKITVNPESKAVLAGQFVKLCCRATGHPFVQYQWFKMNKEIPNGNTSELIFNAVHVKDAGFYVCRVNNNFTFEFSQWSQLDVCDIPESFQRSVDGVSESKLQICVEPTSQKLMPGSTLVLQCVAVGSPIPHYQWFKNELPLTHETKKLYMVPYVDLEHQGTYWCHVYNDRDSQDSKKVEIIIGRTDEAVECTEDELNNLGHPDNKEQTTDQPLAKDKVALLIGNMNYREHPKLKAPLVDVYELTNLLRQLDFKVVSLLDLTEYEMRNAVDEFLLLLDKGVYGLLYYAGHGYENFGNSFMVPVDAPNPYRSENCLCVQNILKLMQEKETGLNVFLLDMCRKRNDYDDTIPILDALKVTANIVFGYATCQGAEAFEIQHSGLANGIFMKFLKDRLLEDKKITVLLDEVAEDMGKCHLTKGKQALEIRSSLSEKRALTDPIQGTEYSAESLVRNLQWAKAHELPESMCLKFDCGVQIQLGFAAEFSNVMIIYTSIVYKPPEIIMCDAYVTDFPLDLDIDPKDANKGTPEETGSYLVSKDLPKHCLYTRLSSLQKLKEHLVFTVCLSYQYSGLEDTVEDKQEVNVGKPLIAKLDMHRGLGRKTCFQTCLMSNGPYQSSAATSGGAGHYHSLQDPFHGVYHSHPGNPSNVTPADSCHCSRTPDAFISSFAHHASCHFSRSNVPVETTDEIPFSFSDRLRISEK

SMILES	IC50 [1, 2] [nM]	IC50 (Avi-tagged FL MALT-1) [nM]	IC50 ([1]; Jurkat) [nM]
COc1ccc2cnn(C)c2c1NS(=O)(=O)c1cnn(-c2cnc3n2CCOC3)c1 [Compound I-475, 1-(5,6-dihydro-8H-imidazo[2,1-c][1,4]oxazin-3-yl)-N-(6-methoxy-1-methyl-1H-indazol-7-yl)-1H-pyrazole-4-sulfonamide]	> 2500	> 2500	–
CCC(F)(F)c1ccnc(-n2cc(S(=O)(=O)Nc3cccc4cnn(C)c34)cn2)c1 [Compound I-140, 1-(4-(1,1-difluoropropyl)pyridin-2-yl)-N-(1-methyl-1H-indazol-7-yl)-1H-pyrazole-4-sulfonamide]	–	> 2500	< 400
Cn1ncc2cccc(NS(=O)(=O)c3cnn(-c4cc(N5CCC5)ccn4)c3)c21 [Compound I-248, 1-(4-(azetidin-1-yl)pyridin-2-yl)-N-(1-methyl-1H-indazol-7-yl)-1H-pyrazole-4-sulfonamide]	–	> 2500	< 400
COc1ccc2cnn(C)c2c1NS(=O)(=O)c1cnn(-c2cc(C3(F)COC3)ccn2)c1 [Compound I-69, 1-(4-(3-Fluorooxetan-3-yl)Pyridin-2-yl)-N-(6-Methoxy-1-Methyl-1H-Indazol-7-yl)-1H-Pyrazole-4-Sulfonamide]	< 400	≤ 400	–
CN1CC(c2ccnc(-n3cc(S(=O)(=O)Nc4cccc5cnn(C)c45)cn3)c2)C1 [Compound I-325]	> 2500	> 2500	–
CCc1ccc2cnn(C)c2c1NS(=O)(=O)c1cnn(-c2ccnc(Cl)c2)c1 [Compound I-37, 1-(2-Chloropyridin-4-yl)-N-(6-Ethyl-1-Methyl-1H-Indazol-7-yl)-1H-Pyrazole-4-Sulfonamide]	< 400	≤ 400	–
COc1ccc2cnn(C)c2c1N(C)S(=O)(=O)c1cnn(-c2ccnc(C(F)(F)F)c2)c1 [Compound I-25, N-(6-Methoxy-1-Methyl-1H-Indazol-7-yl)-N-methyl-1-(2-(Trifluoromethyl)Pyridin-4-yl)-1H-Pyrazole-4-Sulfonamide]	< 400	≤ 400	–
COC1(c2ccnc(-n3cc(S(=O)(=O)Nc4cccc5cnn(C)c45)cn3)c2)CCOCC1 [Compound I-131, 1-(4-(4-methoxytetrahydro-2H-pyran-4-yl)pyridin-2-yl)-N-(1-methyl-1H-indazol-7-yl)-1H-pyrazole-4-sulfonamide]	< 400	> 2500	–
CCc1ccc2cnn(C)c2c1NS(=O)(=O)c1cnn(-c2ccnc(C)c2)c1 [Compound I-31, N-(6-Ethyl-1-Methyl-1H-Indazol-7-yl)-1-(2-Methylpyridin-4-yl)-1H-Pyrazole-4-Sulfonamide]	400 to 1000	≤ 400	–
Cn1nc(F)c2cccc(NS(=O)(=O)c3cnn(-c4cc(C(C)(F)F)ccn4)c3)c21 [Compound I-139, 1-(4-(1,1-Difluoroethyl)Pyridin-2-yl)-N-(3-FLUORO-1-Methyl-1H-Indazol-7-yl)-1H-Pyrazole-4-Sulfonamide]	< 400	> 2500	–
COc1ncc2cnn(C)c2c1NS(=O)(=O)c1cnn(-c2cc(N3CC4CC4C3)ccn2)c1 (stereo not shown) [Compound I-405]	< 400	> 2500	–

Second part, led by results:

IC50 [1, 2] [nM]	IC50 (Avi-tagged FL MALT-1) [nM]	SMILES	IC50 ([1]; Jurkat) [nM]
< 400	400 to 1000	Cn1ncc2cccc(NS(=O)(=O)c3cnn(-c4cc(C(F)(F)F)c(Cl)cn4)c3)c21 [Compound I-121, 1-(5-Chloro-4-(Trifluoromethyl)Pyridin-2-yl)-N-(1-Methyl-1H-Indazol-7-yl)-1H-Pyrazole-4-Sulfonamide]	–
< 400	≤ 400	COc1ccc2cnn(C)c2c1NS(=O)(=O)c1cnn(-c2cc(C(C)(F)F)ccn2)c1 [Compound I-91, 1-(4-(1,1-Difluoroethyl)Pyridin-2-yl)-N-(6-Methoxy-1-Methyl-1H-Indazol-7-yl)-1H-Pyrazole-4-Sulfonamide]	–
< 400	≤ 400	COc1ccc2cnn(C)c2c1NS(=O)(=O)c1cnn(-c2cc(C(C)OC)ccn2)c1 (single isomer, unassigned) [Compound I-290, N-(6-methoxy-1-methyl-1H-indazol-7-yl)-1-(4-(1-methoxyethyl)pyridin-2-yl)-1H-pyrazole-4-sulfonamide]	–
< 400	≤ 400	COc1ccc2cnn(C)c2c1NS(=O)(=O)c1cnn(-c2cc([C@@H](C)O)ccn2)c1 [Compound I-340, (R)-1-(4-(1-hydroxyethyl)pyridin-2-yl)-N-(6-methoxy-1-methyl-1H-indazol-7-yl)-1H-pyrazole-4-sulfonamide]	–
< 400	1000 to 2500	Cn1ncc2cccc(NS(=O)(=O)c3cnn(-c4cc(C5CC5)ccn4)c3)c21 [Compound I-76, 1-(4-Cyclopropylpyridin-2-yl)-N-(1-Methylindazol-7-yl)Pyrazole-4-Sulfonamide]	–
< 400	> 2500	COc1ncc2cnn(C)c2c1NS(=O)(=O)c1cnn(-c2cc(N3CCCCCC3)ccn2)c1 [Compound I-408]	–
< 400	> 2500	COC1(c2ccnc(-n3cc(S(=O)(=O)Nc4cccc5cnn(C)c45)cn3)c2)CC2(CC2)C1 [Compound I-484, 1-(4-(5-methoxyspiro[2.3]hexan-5-yl)pyridin-2-yl)-N-(1-methyl-1H-indazol-7-yl)-1H-pyrazole-4-sulfonamide]	–
< 400	> 2500	COc1ccc2cnn(C)c2c1NS(=O)(=O)c1cnn(-c2cc(C3(OC)CC(C)(C)C3)ccn2)c1 [Compound I-480]	–
< 400	400 to 1000	COc1ccc2cnn(C)c2c1NS(=O)(=O)c1cnn(-c2cc(C3(F)CC(C)C3)ccn2)c1 (stereo not shown) [Compound I-413, 1-(4-(1-fluoro-3-methylcyclobutyl)pyridin-2-yl)-N-(6-methoxy-1-methyl-1H-indazol-7-yl)-1H-pyrazole-4-sulfonamide]	–
< 400	≤ 400	[2H]C([2H])([2H])Oc1ccc2cnn(C)c2c1NS(=O)(=O)c1cnn(-c2cc(C(F)(F)F)ccn2)c1 [Compound I-70, N-(6-(Methoxy-D3)-1-Methyl-1H-Indazol-7-yl)-1-(4-(Trifluoromethyl)Pyridin-2-yl)-1H-Pyrazole-4-Sulfonamide]	–
< 400	400 to 1000	COc1ccc2cnn(C)c2c1NS(=O)(=O)c1cnn(-c2cc(C3(F)CC(F)C3)ccn2)c1 (single isomer, unassigned) [Compound I-377, 1-(4-(1,3-difluorocyclobutyl)pyridin-2-yl)-N-(6-methoxy-1-methyl-1H-indazol-7-yl)-1H-pyrazole-4-sulfonamide]	–
< 400	> 2500	COc1ccc2cnn(C)c2c1NS(=O)(=O)c1cnn(-c2cc(N3CC(C)C3)ccn2)c1 [Compound I-369]	–

Reference: patent publication US20240150321A1, “PYRAZOLYLSULFONAMIDE COMPOUNDS AND THEIR USE IN THERAPY” (HOTSPOT THERAPEUTICS, INC., priority 2022, published 2024)
